Consider 12 molecules from US20240228476A1, “INHIBITORS OF PROTEIN TYROSINE PHOSPHATASE, COMPOSITIONS, AND METHODS OF USE” (BRISTOL-MYERS SQUIBB COMPANY, priority 2022, published 2024).

One experiment deals with B16-F10 cells. The experiment is described as follows: Cell proliferation assay (CellTiter-Glo) in B16-F10 cells with IFN-gamma. In kind it is cell-based. The following applies: 120 h, mouse IFN-gamma 10 ng/mL, read-out: PTPN2 Prolif 5d B16F10 EC50. As to the method: B16-F10 cells (ATCC, Manassas, VA, #CRL-6475) were cultured in DMEM growth medium (ThermoFisher Scientific, Waltham, MA, #11995-040) supplemented with 10% heat inactivated FBS (ThermoFisher Scientific, #16140-071) and 1% pen/strep (ThermoFisher Scientific, #15140-122). The cells were seeded into two white opaque 384-well tissue culture treated microplates (PerkinElmer, Waltham, MA, #6007688) at a density of 100 cells/well in 20 uL total volume and incubated overnight at 37 C and 5% CO2. 30 nL of compounds dissolved in DMSO were then transferred from a source plate into target wells with the Echo650 acoustic liquid handler (Beckman Coulter, Indianapolis, IN). Negative control wells received 30 nL of DMSO only (0.15% final concentration). Plates were returned to the incubator for 1 hour and then cells treated with either 5 uL of growth medium or 5 uL of growth medium containing 50 ng/ml of recombinant mouse IFN-gamma protein (R&D Systems, Minneapolis, MN, #485-MI/CF, 10 ng/mL final concentration) using the Assist automated pipetting platform (INTEGRA Biosciences, Hudson, NH). Plates were incubated at 37 C for 4 days and cell proliferation assayed with the CellTiter-Glo reagent (Promega, Madison, WI, #G7573, 25 uL per well). […] Off-target compound mediated cytotoxicity was identified by checking for growth inhibition in the absence of IFNg.
In general terms: In ATP-based viability assays light output follows the ATP content of the culture.

Experiment [1] deals with T1, PTPN2 (Homo sapiens, UniProt P17706).
T1 sequence (P17706 1-415): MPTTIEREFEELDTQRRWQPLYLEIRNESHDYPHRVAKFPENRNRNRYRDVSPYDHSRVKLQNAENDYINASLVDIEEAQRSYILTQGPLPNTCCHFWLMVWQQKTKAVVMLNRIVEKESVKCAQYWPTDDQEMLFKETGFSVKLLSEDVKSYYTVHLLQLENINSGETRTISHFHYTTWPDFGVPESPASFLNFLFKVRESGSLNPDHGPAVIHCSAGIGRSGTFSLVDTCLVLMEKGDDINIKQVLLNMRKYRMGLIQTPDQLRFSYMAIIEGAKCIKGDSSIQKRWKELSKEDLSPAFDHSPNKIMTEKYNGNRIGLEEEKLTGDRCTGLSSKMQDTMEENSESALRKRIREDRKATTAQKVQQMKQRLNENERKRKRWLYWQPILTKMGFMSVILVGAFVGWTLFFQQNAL
As to the kind of experiment: PTPN2 biochemical assay (PhosphoSens, substrate AQT0264). The following applies: PhosphoSens substrate AQT0264 20 μM, room temperature; read-out: PTPN2 BCHEM IC50. Here is the method: A PhosphoSens® kinase assay was performed as described by the vendor (AssayQuant Technologies, Marlborough, MA). Briefly, 1000× solutions of compounds were prepared in DMSO via serial dilution of the 10 mM DMSO stocks using 3-fold intervals in a 384-well reagent plate. 50 nL of the compound dilution series was then added to the corresponding wells of a 384-well assay plate. 40 mL of 1.25× substrate (AQT0264) in 1× assay buffer (50 mM HEPES pH 7.5, 500 μM EGTA, […] MgCl2, 0.01% Brij-35, 1% Glycerol, 1 mM DTT, and 0.2 mg/mL BSA) was transferred to each well of the assay plate to achieve a final substrate concentration of 20 μM. Finally, […] of 5×PTPN2 enzyme stock was added to each well of the assay plate for a final enzyme concentration of […]. Reaction progress curves were collected by sampling fluorescence intensity at the excitation wavelength 360 nm (λex360) and emission wavelength 480 nm (λem480) every 71 seconds for one hour using a Synergy H4 plate reader (BioTek Instruments/Agilent Technologies, Winooski, VT) at room temperature.
(§1) For IC50 data, High DDT concentration and/or DiFMUP substrate assays were used; a skilled artisan may use either assay.

Another experiment has as its system phospho-STAT1 (Tyr701). The experiment is described as follows: Phospho-STAT1 (Tyr701) HTRF assay in B16-F10 cells. The experiment is classed as cell-based. The note with it: mouse IFN-gamma 100 ng/ml, 1 hour, read-out: pSTAT1 HTRF B16 EC50. As to the method:
B16-F10 cells (ATCC, Manassas, VA, #CRL-6475) were cultured in DMEM growth medium (ThermoFisher Scientific, Waltham, MA, #11995-040) supplemented with 10% heat inactivated FBS (ThermoFisher Scientific, #16140-071) and 1% pen/strep (ThermoFisher Scientific, #15140-122). The cells were seeded into a white opaque 384-well tissue culture treated microplate (PerkinElmer, Waltham, MA, #6007688) at a density of 10,000 cells/well in 20 uL total volume and incubated overnight at 37 C and 5% CO2. 30 nL of compounds dissolved in DMSO were then transferred from a source plate into target wells with the Echo650 acoustic liquid handler (Beckman Coulter, Indianapolis, IN). Negative control wells received 30 nL of DMSO only (0.15% final concentration). Plates were returned to the incubator for 1 hour and then cells treated with either 5 uL of growth medium or 5 uL of growth medium containing 500 ng/ml of recombinant mouse IFN-gamma protein (R&D Systems, Minneapolis, MN, #485-MI/CF, 100 ng/ml final concentration) using the Assist automated pipetting platform (INTEGRA Biosciences, Hudson, NH). Plates were incubated at 37 C for 1 hour and assayed for phosphorylated STAT1 protein levels with the phospho-STAT1 (Tyr701) HTRF kit (Cisbio, Bedford, MA, #63ADK026PEH) according to manufacturer's instructions. HTRF signal intensity was collected with the En Vision 2105 plate reader (PerkinElmer) 24 hours later and analyzed with the Dotmatics software platform to calculate compound IC50 values.
Background: In TR-FRET formats the signal depends on donor and acceptor labels being close together.

Experiment [2] addresses T1, PTPN2. The experiment is described as follows: Phosphatase activity assay using DiFMUP as substrate. The arrangement: purchased MilliporeSigma SRP5075. The experiment is classed as biochemical. The following applies: 10 mM DTT, PTPN2 0.15 nM, room temperature, read-out: PTPN2 BCHEM DIFMUP IC50. Here is the method: The PTPN2 biochemical assay was performed as follows, a 5× stock solution of human PTPN2 (SRP5075, MilliporeSigma, Burlington, MA) and a 1.25× stock solution of DiFMUP (D6567, ThermoFisher Scientific, Waltham, MA), were prepared in 1× reaction buffer consisting of 50 mM HEPES, pH 7.4, 1 mM EDTA, 150 mM NaCl, 0.2 mg/mL BSA, 100 U/mL catalase and 10 mM DTT. […] of the DiFMUP substrate solution, for a final concentration of […] DiFMUP substrate, was added to a Corning 3574 384-well, white, non-binding surface microtiter plate containing […] of serially diluted test compounds prepared in DMSO. The reactions were started with the addition of […] of the enzyme solution, for a final PTPN2 concentration of 0.15 nM, and monitored every 105 seconds for 60 minutes at λEX 360/λEM 460 in a BioTek Synergy HTX plate reader (Agilent Technologies, Santa Clara, CA) at room temperature. The initial linear portions of the progress curves were fit according to a linear equation to yield the slopes and converted to % inhibition based on a value of 100% activity for the no inhibitor treated control. IC50 values of each compound were obtained by fitting the % inhibition-compound concentration curves using Dotmatics software (Dotmatics, Bishops Stortford, Hertfordshire, England)
as §1

Where only a bound is given, the exact number is not on record here.

As usually defined, the EC50 is the concentration that produces a half-maximal response. One may read the IC50 as the concentration at which inhibition is half-maximal. On to `Cc1ccnc(C)c1NCc1cc(O)c(N2CC(=O)NS2(=O)=O)c(F)c1` [EXAMPLE 3, 5-[4-[[(2,4-dimethyl-3-pyridyl)amino]methyl]-2-fluoro-6-hydroxy-phenyl]-1,1-dioxo-1,2,5-thiadiazolidin-3-one], for which the EC50 with B16-F10 cells was 5370 nM; in the experiment with phospho-STAT1 (Tyr701), 6160 nM. Further, the IC50 at PTPN2 [1] stood at 90 nM; at PTPN2 [2], 60 nM.

Consider `N#Cc1cncc(NCc2cc(O)c(N3CC(=O)NS3(=O)=O)c(F)c2)c1` [EXAMPLE 4, 5-[[3-fluoro-5-hydroxy-4-(1,1,4-trioxo-1,2,5-thiadiazolidin-2-yl)phenyl]methylamino]pyridine-3-carbonitrile], for which the values for the EC50 with B16-F10 cells and in the experiment on phospho-STAT1 (Tyr701) were 1650 nM and 1850 nM, respectively. Also, the IC50 at PTPN2 [1] was 44 nM; on PTPN2 [2], 11 nM.

For `COc1ncc(C)nc1NCc1cc(O)c(N2CC(=O)NS2(=O)=O)c(F)c1` [EXAMPLE 20, 5-[2-fluoro-6-hydroxy-4-[[(3-methoxy-6-methyl-pyrazin-2-yl)amino]methyl]phenyl]-1,1-dioxo-1,2,5-thiadiazolidin-3-one], the half-maximal effective concentration (EC50) with B16-F10 cells and with phospho-STAT1 (Tyr701) was above 15000 nM each time. For the same molecule, the IC50 at PTPN2 [1] turned out to be 70 nM; on PTPN2 [2], 11100 nM.

Turning to `O=C1CN(c2c(O)cc(CNc3cncc(-c4ccccc4)c3)cc2F)S(=O)(=O)N1` [EXAMPLE 12, 5-[2-fluoro-6-hydroxy-4-[[(5-phenyl-3-pyridyl)amino]methyl]phenyl]-1,1-dioxo-1,2,5-thiadiazolidin-3-one], the EC50 in the experiment on B16-F10 cells and in the experiment on phospho-STAT1 (Tyr701) was above 15000 nM throughout. Besides, the IC50 worked out at 20 nM on PTPN2 [1] and 100 nM at PTPN2 [2].

With `Cc1c(NCc2cc(O)c(N3CC(=O)NS3(=O)=O)c(F)c2)ccnc1-c1ccc(C(C)(C)C)cc1` [EXAMPLE 15, 5-[4-[[[2-(4-tert-butylphenyl)-3-methyl-4-pyridyl]amino]methyl]-2-fluoro-6-hydroxy-phenyl]-1,1-dioxo-1,2,5-thiadiazolidin-3-one], the EC50 in the experiment with B16-F10 cells and in the experiment on phospho-STAT1 (Tyr701) was above 15000 nM each time. Also, the IC50 at PTPN2 [1] and at PTPN2 [2] was 30 nM throughout.

`Cc1cncc(NCc2cc(O)c(N3CC(=O)NS3(=O)=O)c(F)c2)n1` [EXAMPLE 16, 5-[2-fluoro-6-hydroxy-4-[[(6-methylpyrazin-2-yl)amino]methyl]phenyl]-1,1-dioxo-1,2,5-thiadiazolidin-3-one]: the half-maximal effective concentration (EC50) was found to be 1730 nM in the experiment on B16-F10 cells and 690 nM with phospho-STAT1 (Tyr701). Further, the results for the IC50 on PTPN2 [1] and at PTPN2 [2] were 1 nM and 30 nM, respectively.

Turning to `CC(C)c1cncc(NCc2cc(O)c(N3CC(=O)NS3(=O)=O)c(F)c2)c1` [EXAMPLE 13, 5-[2-fluoro-6-hydroxy-4-[[(5-isopropyl-3-pyridyl)amino]methyl]phenyl]-1,1-dioxo-1,2,5-thiadiazolidin-3-one], the EC50 in the experiment on B16-F10 cells amounted to 1370 nM; in the experiment with phospho-STAT1 (Tyr701) it was 930 nM. Besides, the concentration for half-maximal inhibition (IC50) came to 10 nM at PTPN2 [1] and 50 nM on PTPN2 [2].

Regarding `O=C1CN(c2c(O)cc(CNc3ccc(C4CC4)nc3)cc2F)S(=O)(=O)N1` [EXAMPLE 10, 5-[4-[[(6-cyclopropyl-3-pyridyl)amino]methyl]-2-fluoro-6-hydroxy-phenyl]-1,1-dioxo-1,2,5-thiadiazolidin-3-one], the EC50 in the experiment on B16-F10 cells was 410 nM; in the experiment with phospho-STAT1 (Tyr701) it was 650 nM. In addition, the figures for the IC50 at PTPN2 [1] and on PTPN2 [2] were 10 nM and 100 nM, respectively.

For `Cc1ncc(C)c(NCc2cc(O)c(N3CC(=O)NS3(=O)=O)c(F)c2)n1` [EXAMPLE 27, 5-[4-[[(2,5-dimethylpyrimidin-4-yl)amino]methyl]-2-fluoro-6-hydroxy-phenyl]-1,1-dioxo-1,2,5-thiadiazolidin-3-one], the EC50 in the experiment on B16-F10 cells was found to be 10100 nM; in the experiment on phospho-STAT1 (Tyr701) it was 8600 nM. Moreover, the IC50 on PTPN2 [1] turned out to be 40 nM; at PTPN2 [2], 30 nM.

Take `N#Cc1cnc(NCc2cc(O)c(N3CC(=O)NS3(=O)=O)c(F)c2)nc1` [EXAMPLE 9, 2-[[3-fluoro-5-hydroxy-4-(1,1,4-trioxo-1,2,5-thiadiazolidin-2-yl)phenyl]methylamino]pyrimidine-5-carbonitrile]: the results for the EC50 in the experiment with B16-F10 cells and in the experiment with phospho-STAT1 (Tyr701) were 1290 nM and 490 nM, respectively. Further, the IC50 on PTPN2 [1] was 30 nM; on PTPN2 [2] it was 210 nM.

Take `O=C1CN(c2c(O)cc(CNc3ccc(-c4ccccc4)nc3)cc2F)S(=O)(=O)N1` [EXAMPLE 6, 5-[2-fluoro-6-hydroxy-4-[[(6-phenyl-3-pyridyl)amino]methyl]phenyl]-1,1-dioxo-1,2,5-thiadiazolidin-3-one]: the EC50 came to 4240 nM in the experiment on B16-F10 cells and 2560 nM in the experiment with phospho-STAT1 (Tyr701). Also, the IC50 on PTPN2 [1] came out at 70 nM; at PTPN2 [2] it was 400 nM.

Consider `COc1ncc(C)c(NCc2cc(O)c(N3CC(=O)NS3(=O)=O)c(F)c2)n1` [EXAMPLE 22, 5-[2-fluoro-6-hydroxy-4-[[(2-methoxy-5-methyl-pyrimidin-4-yl)amino]methyl]phenyl]-1,1-dioxo-1,2,5-thiadiazolidin-3-one], for which the EC50 was determined as 10900 nM in the experiment with B16-F10 cells and 6800 nM in the experiment with phospho-STAT1 (Tyr701). In addition, the IC50 at PTPN2 [1] came out at 20 nM; on PTPN2 [2] it was 50 nM.
